For test [1], the system named is p60Tth processing by proteasome. Description: In vitro processing of p60Tth with purified proteasomes / extract. Type of test: biochemical. The conditions noted are these: processing reaction with purified 20/26S proteasomes or fraction II and Pr−(II) extract. The procedure: The p60Tth precursor (or p105) was translated in wheat germ extract. The substrate protein was mixed with HeLa cell cytoplasmic extract (S100) in a processing buffer containing 12 mM Tris, pH 7.5, 60 mM KCl, 20 mM creatine phosphate, 3.5 mM MgCl2 and 1 mM ATP. After incubation at 30° C for one hour, the reaction mixtures were subjected to immunoprecipitation with anti-p50 Ab and the proteins were resolved by SDS-PAGE. In the Apyrase treated sample, the p60 was incubated with 10 U of enzyme at 37° C. for 30 minutes to inactivate residual ATP in the wheat germ extract before adding the HeLa cell S100.
Increasing amounts of purified 20/26S proteasomes or a proteasome-enriched fraction from reticulocyte lysate, fraction II, were added alone or were combined with Pr^−(II) extract in a processing reaction (see Example 4). In addition, processing was inhibited by ATPγS, a non-hydrolyzable analogue of ATP that allows ubiquitination but inhibits proteasome function (lanes 3-5).

For test [2], the target named is T1, chymotrypsin-like activity of the proteasome (UniProt Q32KL2).
T1 sequence (Q32KL2 1-263): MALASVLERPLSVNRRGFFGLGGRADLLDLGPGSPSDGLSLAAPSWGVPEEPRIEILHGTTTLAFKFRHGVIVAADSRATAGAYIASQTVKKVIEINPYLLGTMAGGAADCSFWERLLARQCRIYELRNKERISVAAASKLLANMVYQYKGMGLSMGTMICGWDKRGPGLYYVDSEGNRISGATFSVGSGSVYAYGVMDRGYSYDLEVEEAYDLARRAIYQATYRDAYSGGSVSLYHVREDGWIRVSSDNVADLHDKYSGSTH
To be noted: slow binding inhibitors; Vinitsky et al., Biochemistry 31:9421-9428 (1992); cited from earlier work.

Test [3] concerns the target T2, 26S proteasome (Oryctolagus cuniculus, UniProt G1T4Q9).
T2 sequence (G1T4Q9 1-263): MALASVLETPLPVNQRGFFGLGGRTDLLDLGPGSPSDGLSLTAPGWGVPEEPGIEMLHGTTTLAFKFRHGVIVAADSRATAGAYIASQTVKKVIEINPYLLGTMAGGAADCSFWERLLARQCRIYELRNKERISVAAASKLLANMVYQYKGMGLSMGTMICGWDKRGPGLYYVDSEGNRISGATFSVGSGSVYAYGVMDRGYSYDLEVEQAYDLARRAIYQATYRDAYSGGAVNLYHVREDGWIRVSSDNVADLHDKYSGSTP
Description: Inhibition of the 26S proteasome (kinetic experiments, Ki). Type of test: biochemical. To be noted: Rabbit muscle; substrate Suc-LLVY-AMC; [Mg:ATP] = 2 mM. The text has this: (§1) Tables I-III summarize results from kinetic experiments that measured the inhibition of the 20S and 26S proteasomes, as well as cathepsin B and calpain. In these tables, Ki values are reported, which are dissociation constants for the equilibrium that is established when enzyme and inhibitor interact to form the enzyme:inhibitor complex.
(§2) The substances and assay conditions are briefly summarized in the footnotes to Table I. MG 101 and MG 102, also known as Calpain Inhibitor I and II, were purchased from Calbiochem as catalogue products.

Test [4] has as its target T3, 26S Proteasome Complex (Oryctolagus cuniculus, UniProt G1T4Q9).
T3 sequence (G1T4Q9 1-263): T2 sequence (G1T4Q9 1-263)
Description: MG 101 inhibition of muscle 26S proteasome complex (Table IV). The class given is biochemical. To be noted: enzyme preparation: 26S Proteasome Complex (muscle).

In test [5] the target is T4, cathepsin B (Bos taurus, UniProt P07688).
T4 construct: Bovine spleen; Substrate: Z-RR-AMC; from tissue; host or cells: bovine spleen
Description: Inhibition of cathepsin B (Ki). Type of test: biochemical. To be noted: Bovine spleen; substrate Z-RR-AMC; [DTT] = 2 mM, [EDTA] = 5 mM, pH 5.5, 37° C.; read-out: Ki Cat B.
Source text: as §1

Test [6] deals with calpain, 80 kD catalytic subunit. Description: Inhibition of calpain (Ki). To be noted: Rabbit muscle, substrate Suc-LLVY-AMC, [CaCl2] = 1 mM, [DTT] = 2 mM, pH 7.8, 20° C. Type of test: biochemical.
Source text: as §1

Test [7] deals with T5, 20S Proteasome (Oryctolagus cuniculus, UniProt G1T4Q9).
T5 sequence (G1T4Q9 1-263): T2 sequence (G1T4Q9 1-263)
Description: MG 101 inhibition of muscle 20S proteasome (Table IV). Type of test: biochemical. To be noted: enzyme preparation: 20S Proteasome (muscle).

Test [8] concerns the target T6, 20S Proteasome + Muscle 180 kDa Activator (Oryctolagus cuniculus, UniProt G1T4Q9).
T6 sequence (G1T4Q9 1-263): T2 sequence (G1T4Q9 1-263)
Description: MG 101 inhibition of 20S proteasome + muscle 180 kDa activator (Table IV). Type of test: biochemical. The conditions noted are these: enzyme preparation: 20S Proteasome + Muscle 180 kDa Activator.

For test [9], the target named is T7, 20S Proteasome ± SDS (Oryctolagus cuniculus, UniProt G1T4Q9).
T7 sequence (G1T4Q9 1-263): T2 sequence (G1T4Q9 1-263)
Description: MG 101 inhibition of 20S proteasome with SDS (Table IV). The class given is biochemical. To be noted: enzyme preparation: 20S Proteasome ± SDS.

The target in test [10] is T5, 20S Proteasome. Description: Inhibition of the 20S proteasome (kinetic experiments, Ki). The class given is biochemical, Rabbit. Set-up: Ki 20 S; substrate Suc-LLVY-AMC. To be noted: Rabbit muscle, SDS-activated; substrate Suc-LLVY-AMC.
Source text: as §1, §2
Table V summarizes data for the inhibition of the 20S proteasome by various tripeptide aldehyde inhibitors.

The test system of test [11] is PC12 cells. To be noted: Tsubuki et al. (1993); cited from earlier work.

Non-standard residues stand in square brackets, D forms with d. Residues, ends and D or L forms follow the SMILES beside them. *: point of attachment. Nle = CCCC[C@H](N)C(=O)O; Cbz = O=C(OCc1ccccc1)*

A word on the Ki: it is a measure of affinity in units of concentration, obtained from inhibition or displacement.

As to `Nc1ncnc2c1ncn2[C@@H]1O[C@H](COP(=O)(O)OP(=O)(O)OP(O)(O)=S)[C@@H](O)[C@H]1O` [ATPγS], the “effect on p60Tth processing in vitro” value in test [1] is given as “inhibited”.

Regarding `CSCC[C@@H](C=O)NC(=O)[C@H](CC(C)C)NC(=O)[C@H](CC(C)C)NC(C)=O` [Ac-LLM-H, N-acetyl-Leu-Leu-methioninal] (Ac-Leu-Leu-Met-aldehyde), in test [2], the Ki is 33 µM.

With `CCCC[C@@H](C=O)NC(=O)[C@H](CC(C)C)NC(=O)[C@H](CC(C)C)NC(C)=O` [MG 101, Ac-Leu-Leu-Nle-H] (Ac-Leu-Leu-[Nle]-aldehyde), the Ki in test [3] stood at 1000 nM; in test [4], 3 µM; in [5], 6 nM; in [6], 5 nM; in test [7], 7 µM; in test [8], 600 nM. Further, the Ki in test [9] was 140 nM; in test [10], 140 nM; in test [2], 5.7 µM.

As for `CC(C)C[C@H](NC(=O)OCc1ccccc1)C(=O)N[C@@H](CC(C)C)C(=O)N[C@H](C=O)Cc1ccccc1` [MG 110, Z-Leu-Leu-Phe-H] (Cbz-Leu-Leu-Phe-aldehyde), the Ki in [3] was 180 nM; in test [5] it was 100 nM; in test [6], 62 nM; in test [10], 48 nM; in [2], 0.46 µM.

Consider `CCOC(=O)C(=O)[C@H](Cc1ccccc1)NC(=O)[C@H](CC(C)C)NC(=O)[C@H](CC(C)C)NC(=O)OCc1ccccc1` [Z-Leu-Leu-Phe-COOEt], for which the Ki in test [2] is 53 µM.

On to `CC(C)C[C@@H](C=O)NC(=O)[C@H](CC(C)C)NC(=O)[C@H](CC(C)C)NC(=O)OCc1ccccc1` [benzyloxycarbonyl(Z)-Leu-Leu-leucinal, Z-L-Leucine-L-Leucine-L-Leucinal] (Cbz-Leu-Leu-Leu-aldehyde), for which the “optimal concentration initiating neurite outgrowth” value in [11] was 30 nM.

The record behind these values is US20040097420A1, “Proteasome regulation of NF-kB activity” (Harvard College, priority 1994, published 2004).
